Experimental data from patent US9914731B2, “Pyrazolo[1,5-a]pyridine derivatives and methods of their use” (Ignyta, Inc., priority 2013, dated 2018).

target: recombinant human baculovirus-expressed cMET (Homo sapiens (Human), UniProt P08581); assay: c-MET kinase assay (HTRF KinEASE); format: biochemical; conditions: average of two or more determinations; read-out: c-MET IC50

`CN1CCN(c2ccc(-c3cc(Oc4ccc(NC(=O)c5cccn(-c6ccc(F)cc6)c5=O)cc4F)c4ccnn4c3)cn2)CC1` [Example 37, 1-(4-Fluoro-phenyl)-2-oxo-1,2-dihydro-pyridine-3-carboxylic acid (3-fluoro-4-{6-[6-(4-methyl-piperazin-1-yl)-pyridin-3-yl]-pyrazolo[1,5-a]pyridin-4-yloxy}-phenyl)-amide] and `CN1CCN(c2cc(Oc3ccc(NC(=O)c4cccn(-c5ccc(F)cc5)c4=O)cc3F)c3ccnn3c2)CC1` [Example 38, 1-(4-Fluoro-phenyl)-2-oxo-1,2-dihydro-pyridine-3-carboxylic acid {3-fluoro-4-[6-(4-methyl-piperazin-1-yl)-pyrazolo[1,5-a]pyridin-4-yloxy]-phenyl}-amide] cannot be ordered by IC50: less than 10 nM for the first, less than 10 nM for the second.

`Cn1nccc1-c1cc(Oc2ccc(NC(=O)c3cccn(-c4ccc(F)cc4)c3=O)cc2F)c2ccnn2c1` [Example 41, 1-(4-Fluoro-phenyl)-2-oxo-1,2-dihydro-pyridine-3-carboxylic acid{3-fluoro-4-[6-(2-methyl-2H-pyrazol-3-yl)-pyrazolo[1,5-a]pyridine-4-yloxy]-phenyl}-amide] and `O=C(Nc1ccc(Oc2cc(-c3cnsc3)cn3nccc23)c(F)c1)c1cccn(-c2ccc(F)cc2)c1=O` [Example 53, 1-(4-Fluoro-phenyl)-2-oxo-1,2-dihydro-pyridine-3-carboxylic acid[3-fluoro-4-(6-isothiazol-4-yl-pyrazolo[1,5-a]pyridin-4-yloxy)-phenyl]-amide] cannot be ordered by IC50: less than 10 nM for the first, less than 10 nM for the second.

`O=C(Nc1ccc(Oc2cc(C3CCOCC3)cn3nccc23)c(F)c1)c1cccn(-c2ccc(F)cc2)c1=O` [Example 47, 1-(4-Fluoro-phenyl)-2-oxo-1,2-dihydro-pyridine-3-carboxylic acid{3-fluoro-4-[6-(tetrahydro-pyran-4-yl)-pyrazolo[1,5-a]pyridin-4-yloxy]-phenyl}-amide] and `O=C(Nc1ccc(Oc2cc(N3CCCCC3)cn3nccc23)c(F)c1)c1cccn(-c2ccc(F)cc2)c1=O` [Example 57, 1-(4-Fluoro-phenyl)-2-oxo-1,2-dihydro-pyridine-3-carboxylic acid[3-fluoro-4-(6-piperidin-1-yl-pyrazolo[1,5-a]pyridin-4-yloxy)-phenyl]-amide] cannot be ordered by IC50: less than 10 nM for the first, less than 10 nM for the second.

`Cc1noc(C)c1-c1cc(Oc2ccc(NC(=O)c3cccn(-c4ccc(F)cc4)c3=O)cc2F)c2ccnn2c1` [Example 48, 1-(4-Fluoro-phenyl)-2-oxo-1,2-dihydro-pyridine-3-carboxylic acid{4-[6-(3,5-dimethyl-isoxazol-4-yl)-pyrazolo[1,5-a]pyridin-4-yloxy]-3-fluoro-phenyl}-amide] and `CCn1cc(C(=O)Nc2ccc(Oc3cc(-c4cnco4)cn4nccc34)c(F)c2)c(=O)n(-c2ccc(F)cc2)c1=O` [Example 52, 1-Ethyl-3-(4-fluoro-phenyl)-2,4-dioxo-1,2,3,4-tetrahydro-pyrimidine-5-carboxylic acid[3-fluoro-4-(6-oxazol-5-yl-pyrazolo[1,5-a]pyridin-4-yloxy)-phenyl]-amide] cannot be ordered by IC50: less than 10 nM for the first, less than 10 nM for the second.

Compared with `Cc1ccc(C(=O)Nc2ccc(Oc3cc(C4CCS(=O)(=O)CC4)cn4nccc34)c(F)c2)c(=O)n1-c1ccc(F)cc1` [Example 50, 1-(4-Fluoro-phenyl)-6-methyl-2-oxo-1,2-dihydro-pyridine-3-carboxylic acid {4-[6-(1,1-dioxo-hexahydro-thiopyran-4-yl)-pyrazolo[1,5-a]pyridin-4-yloxy]-3-fluoro-phenyl}-amide], `CCOCCn1cc(C(=O)Nc2ccc(Oc3cc(N4CCOCC4)cn4nccc34)c(F)c2)c(=O)n(-c2ccc(F)cc2)c1=O` [Example 58, 1-(2-Ethoxy-ethyl)-3-(4-fluoro-phenyl)-2,4-dioxo-1,2,3,4-tetrahydro-pyrimidine-5-carboxylic acid [3-fluoro-4-(6-morpholin-4-yl-pyrazolo[1,5-a]pyridin-4-yloxy)-phenyl]-amide] is higher in IC50: less than 10 nM for the first, 10 to 100 nM for the second. The first is the more potent here.
